Assay results reported in patent EP4763837A1, “PHOTOCHROMIC COMPOUND, CURABLE COMPOSITION, OPTICAL ARTICLE, LENS, AND EYEGLASSES” (TOKUYAMA CORPORATION, priority 2023, dated 2025).
Several values for one entry are separate records, joined by “and”; a condition that tells them apart may be missing. Equal values may be shown once.

Tests used:
[1] = Photochromic property of photochromic laminate made by coating method; type: physicochemical; details: for Residual ratio / Color developing density at 23°C: laminate by coating method; for Residual ratio: A96/A0 x 100 after 96 hours accelerated degradation, xenon weather meter X25; for Color developing density at 23°C: absorbance difference after 240 seconds irradiation at the maximum absorption wavelength of the same line
Description: First, the photochromic compound obtained in Example 1, a photoinitiator, and a polymerizable compound were mixed to obtain a curable composition.
The polymerizable compound was a combination of the following radical polymerizable monomers:
Polyethylene glycol dimethacrylate (average molecular weight: 736): 42 parts by mass • Polyethylene glycol dimethacrylate (average molecular weight: 536): 12 parts by mass • Trimethylolpropane methacrylate: 38 parts by mass γ-Methacryloyloxypropyltrimethoxysilane: 2 parts by mass Glycidyl methacrylate: 1 part by mass.
Note that, in the curable composition, the photochromic compound was added in an amount of 0.25 mmol taking a total amount of the radical polymerizable monomers as 100 g.
Phenylbis(2,4,6-trimethylbenzoyl)phosphine oxide (photoinitiator: Omnirad 819): 0.3 parts by mass Ethylene bis(oxyethylene) bis[3-(5-tert-butyl-4-hydroxy-m-tolyl) propionate] (stabilizer, Irganox 245): 1 part by mass Bis(1,2,2,6,6-pentamethyl-4-piperidyl)sebacate: 3 parts by mass Leveling agent (L-7001) manufactured by DuPont Toray Specialty Materials K.K.: 0.1 parts by mass.
Using this curable composition, a photochromic laminate was obtained by a lamination method including polymerization as follows.
First, a thiourethane plastic lens with a center thickness of 2 mm and a refractive index of 1.60 was prepared as an optical substrate. Note that, the thiourethane plastic lens had been alkaline-etched in a 10% sodium hydroxide aqueous solution at 50°C for 5 minutes in advance, and then thoroughly washed with distilled water.
A spin coater (1H-DX2, manufactured by MIKASA CO., LTD) was used to coat a surface of the above-mentioned plastic lens with a moisture-curing primer (product name: TR-SC-P, manufactured by Tokuyama Corporation) at a rotation speed of 70 rpm for 15 seconds, followed by 1000 rpm for 10 seconds. Then, about 2 g of the photochromic curable composition obtained above was spin-coated at a rotation speed of 60 rpm for 40 seconds, followed by 600 rpm for 10 to 20 seconds so as to achieve a photochromic coating layer with a thickness of 40 µm.
The lens of which surface had been coated with the photochromic curable composition (photochromic coating layer) was irradiated with light for 90 seconds in a nitrogen gas atmosphere using a metal halide lamp with an output of 200 mW/cm^2 to cure the coating. The resultant was then further heated at 110°C for 1 hour to produce a photochromic laminate with a photochromic layer.
Photochromic laminates were produced using the photochromic compounds obtained in Examples 2 to 20 in the same manner as in Example 21.
Photochromic laminates were obtained using photochromic compounds represented by Formulae (A) to (D) below in the same manner as in Example 21. [drawing 89] [drawing 90] [drawing 91] [drawing 92] [drawing 93]
The resulting photochromic laminates were evaluated by the below-mentioned methods. • (1) Photochromic property • [1] Maximum absorption wavelength (λmax): This is the maximum absorption wavelength after color development determined by a spectrophotometer manufactured by Otsuka Electronics Co., Ltd. (instantaneous multichannel photo detector MCPD3000) and was used as an index of a color tone upon color development. • [2] Color developing density at 23°C (A23): This is a difference between an absorbance {ε(240)} after irradiation with light at 23°C for 240 seconds and an absorbance ε(0) when not irradiated with light at the maximum absorption wavelength and was used as an index of a color developing density. The higher this value is, the better a photochromic property is. • [3] Color fading half-life at 23°C [τ1/2 (sec).)]: This is a period of time taken by an absorbance at the maximum absorption wavelength of a sample to decrease to 1/2 of {ε(240)-ε(0)} when irradiation is stopped after irradiation with light at 23°C for 240 seconds, and was used as an index of a color fading rate. The shorter this period of time is, the faster the color fading rate is. • [4] […]

[2] = Solubility of photochromic compound in polymerizable compounds; type: physicochemical; set-up: key: 1: No haze is seen when checked under transmission of light, and the sample is completely dissolved.; 2: A very thin haze is seen to the extent that it can be seen under transmission of light.; 3: A thin haze that can be seen under transmission of light is seen.; 4: A haze can be seen even without transmission of light; details: 35 µmol/g in radical polymerizable compound composition of Example 21, 65 to 70°C; for Dissolution for 15 min / Dissolution for 30 min / Dissolution for 45 min: stirring and ultrasonic irradiation; for Dissolution for 1 hour: head reads 60 min in Tables 8 to 14
Procedure: The photochromic compounds according to Examples and Comparative examples shown in Table 5 were evaluated for solubility in polymerizable compounds.
Specifically, a sample was prepared by adding each of the photochromic compounds to the composition, which consisted of a radical polymerizable compound, among the curable compositions used in Example 21.
Note that, this test was performed using "YOKAI-KUN USS-1" manufactured by NIHONSEIKI KAISHA LTD. under the following conditions: • Dissolution temperature: 65 to 70°C • Stirring condition: Stirring dial of 5. Ultrasonic irradiation condition: Irradiation interval of 3 sec.
Dissolution was checked every 15 minutes up to 1 hour later, the sample was visually checked by transmitting light through the sample, and a degree of dissolution was evaluated according to the following four evaluation criteria.
• 1: No haze is seen when checked under transmission of light, and the sample is completely dissolved. • 2: A very thin haze is seen to the extent that it can be seen under transmission of light. • 3: A thin haze that can be seen under transmission of light is seen. • 4: A haze can be seen even without transmission of light.
A shorter time required for the evaluation result to be 1 means higher solubility.

Row | SMILES | Residual ratio [1] | Dissolution for 15 min [2] | Dissolution for 30 min [2] | Dissolution for 45 min [2] | Dissolution for 1 hour [2] | Color fading half-life at 23°C [1] | Color developing density at 23°C [1]
1 | CCCCC1(C)c2cc(N(C)c3ccccc3)ccc2-c2c1c1c(c3cc(OC)c(OC)cc23)OC(c2ccc(OC)cc2)(c2ccc(OCCC)cc2)C=C1 (stereo not drawn) [Formula (73-2)] | 62% | 3 | 3 | 2 | 1 | – | –
2 | CCC1(C)c2cc(OC)ccc2-c2c1c1c(c3cc(OC)c(Sc4c(C)cccc4C)cc23)OC(c2ccc(OC)cc2)(c2ccc(N3CCOCC3)cc2)C=C1 (stereo not drawn) [Formula (74-2)] | 64% | 4 | 3 | 2 | 1 | 1.5 min | –
3 | CCCCC1(CC)c2cc(OC)ccc2-c2c1c1c(c3cc(OC)c(Sc4c(C)cccc4C)cc23)OC(c2ccc(OC)cc2)(c2ccc(N3CCOCC3)cc2)C=C1 (stereo not drawn) [Formula (77-1)] | 67% | 3 | 3 | 1 | 1 | – | –
4 | CCCC1(CC)c2ccccc2-c2c1c1c(c3cc(OC)c(-c4c(OC)cc(OC)cc4OC)cc23)OC(c2ccc(OC)cc2)(c2ccc(N(c3ccccc3)c3ccccc3)cc2)C=C1 (stereo not drawn) [Formula (78-2)] | 64% | 3 | 2 | 1 | 1 | – | –
5 | CCCC1(CC)c2cc(C)ccc2-c2c1c1c(c3cc(OC)c(-c4ccc(N5CCOCC5)cc4)cc23)OC(c2ccc(OC)cc2)(c2ccc(N3CCOCC3)cc2)C=C1 (stereo not drawn) [Formula (79-2)] | – | 3 | 2 | 1 | 1 | 1.3 min | –
6 | CCCCC1(CC)c2ccccc2-c2c1c1c(c3cc(OC)c(N(C)c4ccccc4)cc23)OC(c2ccc(OC)cc2)(c2ccc(OC)cc2)C=C1 (stereo not drawn) [Formula (80-2)] | 79% | 3 | 2 | 1 | 1 | 1.17 min | 1.09 -
7 | CCCOc1ccc(C2(c3ccc(OC)cc3)C=Cc3c4c(c5cc(OC)c(OC)cc5c3O2)-c2ccc(N(C)c3ccccc3)cc2C4(CC)CCC)cc1 (stereo not drawn) [Formula (87-1)] | 64% | 3 | 2 | 1 | 1 | 2.65 min | –
8 | CCCCCCC1(C)c2cc(OC(F)(F)F)ccc2-c2c1c1c(c3cc(OC)ccc23)OC(c2ccc(OC)cc2)(c2ccc(OC)cc2)C=C1 (stereo not drawn) [Formula (90-1)] | 64% | 3 | 2 | 1 | 1 | – | –
9 | CCCC1(CC)c2cc(OC)ccc2-c2c1c1c(c3cc(OC)ccc23)OC(c2ccc(OC)cc2)(c2ccc(N3CCOCC3)cc2)C=C1 (stereo not drawn) [Formula (91-1)] | 57% | 4 | 3 | 1 | 1 | 1.25 min | –
10 | CCC1(OCCOCCO[Si](C)(C)CC[Si](O[Si](C)(C)C)(O[Si](C)(C)C)O[Si](C)(C)C)c2ccccc2-c2c1c1c(c3cc(OC)c(N4CCOCC4)cc23)OC(c2ccc(OC)cc2)(c2ccc(OC)cc2)C=C1 (stereo not drawn) [Formula (C), reference compound] | 34% and 36% | 2 | 1 | 1 | 1 | – | 1.27 - and 0.70 -
11 | COc1ccc(C2(c3ccc(OC)cc3)C=Cc3c4c(c5cc(N6CCOCC6)c(OC)cc5c3O2)-c2ccccc2C42CCCCCCC2)cc1 [Formula (D), reference compound] | 51% and 53% | 4 | 3 | 2 | 1 | 3.13 min | 1.61 - and 0.89 -
